Assay results taken from US9073965B2, “Adiponectin receptor agonists and methods of use” (TEMPLE UNIVERSITY—OF THE COMMONWEALTH SYSTEM OF HIGHER …, priority 2011, dated 2015).
Non-standard residues stand in square brackets, D forms with d. Residues, ends and D or L forms follow the SMILES beside them. Nva = CCC[C@H](N)C(=O)O; βAla = NCCC(=O)O

Assays:
[1] = test system: MCF-7 breast cancer cells
Procedure: The MCF-7 breast cancer cell line was obtained from ATCC (Manassas, Va.) and routinely grown in DMEM:F12 plus 5% calf serum (Cellgro Mediatech, Manassas, Va.) at 37° C., 5% CO2. For screening experiments, MCF-7 cells were plated in 24-well plates at the concentration of 30,000 cells/well. After 12 h of culture in the growth medium, the cells were synchronized in serum-free medium (SFM) (DMEM:F12 supplemented with 0.42 g/mL bovine serum albumin, 1 mM FeSO4 and 2 mM L-glutamine) for 24 h and then shifted back to the full growth medium containing either gAd (Phoenix Secretomics, Burlingame, Calif.) at 50 ng/mL, individual peptides, or no test compounds for 24 h. At conclusion of proliferation assays, the cells were counted under the microscope with trypan-blue exclusion. Each experiment was performed in triplicate and repeated at least three times.

[2] = Peptide stability in whole mouse blood; assay type: in vitro ADME; conditions: after 30 min at 37° C., mass spectroscopy
Procedure: (§1) Sixty μg of ADP 355-NH2 were dissolved in 100 μL water, and 10 μL aliquots were mixed with 100 μL of freshly drawn mouse blood. After 30 min of incubation at 37° C. the cells were centrifuged at 10,000×g. Fifty μL serum was mixed with 50 μL phosphate buffered saline pH 6.8 (PBS), and the serum proteins were precipitated by addition of 45 μL aqueous 15% trichloroacetic acid (TCA) for 10 min at 4° C. After centrifugation at 12,000×g the supernatant was neutralized with 0.1 M aqueous sodium hydroxide and 0.5 μL of this solution was mixed with 0.5 μL α-cyano-4-hydroxycinnamic acid (4 mg/mL in 60% aqueous acetonitrile containing 0.1% TFA) as matrix on a sample plate. Analysis was performed on a MALDI time-of-flight tandem mass spectrometer (MALDITOF/TOF-MS, 4700 proteomic analyzer, Applied Biosystems, Weiterstadt, Germany). Additionally, the neutralized supernatant was loaded on a Jupiter C18 RP-HPLC column (4.6 mm internal diameter, 150 mm length, 5 μm particle size, 30 nm pore size; Phenomenex) that had previously been calibrated with known amounts of peptide ADP 355-NH2 dissolved in PBS. Absorbance was measured at 214 nm. Peptide ADP 355-NH2 was incubated at 37° C. with 25% aqueous mouse serum at a final concentration of 150 μg/mL. After 0, 15, 30, 60, 120, and 240 min 95 μL aliquots were mixed with 25 μL 15% aqueous TCA and were incubated for 10 min at 4° C. […]

ERK1/2 = assay: Signaling analysis by Western blot: ERK1/2 phosphorylation; assay type: cell-based
Procedure: The analysis was done using MCF-7 and MDA-MB-231 breast cancer cells and in LN18 glioblastoma cells. The cells at 70-80% confluence were shifted to SFM for 24 h, then SFM was removed, the cultures were washed 2× with PBS, placed in normal growth medium for 1 h, and then treated with ADP 355-NH2 at 100 nM (MCF-7 cells) or 10 μM (MDA-MB-231 and LN 18 cells) concentration for 0-60 min, while gAd at 50 ng/mL was applied for 60 min only. Untreated cells were used as negative control. After the treatment, cells were lysed as previously described and 100 μg of proteins were analyzed by Western blot for the expression of phosphorylated (p) and total forms of several signaling molecules. Bartella V, et al. Cancer Res 2008, 68(12):4919-4927. Garofalo C, et al. Clin Cancer Res 2004, 10(10):6466-6475. The following primary antibodies (Abs) from Cell Signaling (Danvers, Mass.) were used: 1) pAMPK alpha (T172) D79.5E rabbit mAb 1: 750; 2) total AMPK alpha antibody rabbit mAb 1:1000 in; 3) p44/42 MAPK (T202/Y204) rabbit mAb 1:1000; 4) total 44/42 MAP kinase antibody rabbit mAb 1:1000; 5) pStat3 (Y705) D3A7 rabbit mAb 1: 500; 6) total Stat3 79D7 rabbit mAb 1:2000; 7) pAkt (Ser 473) rabbit mAb 1:1000; 8) total Akt rabbit mAb 1:1000; 9) AdipoR1 rabbit purified anti-serum 1:500 (Phoenix Secretomics). […]

Akt = assay: Signaling analysis by Western blot: Akt; assay type: cell-based
Procedure: (§2) The analysis was done using MCF-7 and MDA-MB-231 breast cancer cells and in LN18 glioblastoma cells. The cells at 70-80% confluence were shifted to SFM for 24 h, then SFM was removed, the cultures were washed 2× with PBS, placed in normal growth medium for 1 h, and then treated with ADP 355-NH2 at 100 nM (MCF-7 cells) or 10 μM (MDA-MB-231 and LN 18 cells) concentration for 0-60 min, while gAd at 50 ng/mL was applied for 60 min only. Untreated cells were used as negative control. After the treatment, cells were lysed as previously described and 100 μg of proteins were analyzed by Western blot for the expression of phosphorylated (p) and total forms of several signaling molecules. Bartella V, et al. Cancer Res 2008, 68(12):4919-4927. Garofalo C, et al. Clin Cancer Res 2004, 10(10):6466-6475. The following primary antibodies (Abs) from Cell Signaling (Danvers, Mass.) were used: 1) pAMPK alpha (T172) D79.5E rabbit mAb 1: 750; 2) total AMPK alpha antibody rabbit mAb 1:1000 in; 3) p44/42 MAPK (T202/Y204) rabbit mAb 1:1000; 4) total 44/42 MAP kinase antibody rabbit mAb 1:1000; 5) pStat3 (Y705) D3A7 rabbit mAb 1: 500; 6) total Stat3 79D7 rabbit mAb 1:2000; 7) pAkt (Ser 473) rabbit mAb 1:1000; 8) total Akt rabbit mAb 1:1000; 9) AdipoR1 rabbit purified anti-serum 1:500 (Phoenix Secretomics). Protein loading was verified by evaluating the expression of either a constitutive enzyme glyceraldehyde-3-phosphate dehydrogenase (GAPDH) using 6C51 mAbs 1:1000 (Santa Cruz Biotechnology, CA, USA) or alpha-actin using the actin I-19 goat polyclonal Ab (Santa Cruz) 1: 200. The following secondary Abs (Santa Cruz) were used 1) donkey anti-goat IgG-HRP; 2) goat anti-mouse IgG-HRP; 3) goat anti-rabbit IgG-HRP, all applied at 1:1000 dilution.

[3] = test system: MDA-MB-231 breast cancer cells; assay: Cell growth experiments, cell counting; assay type: cell-based; conditions: MDA-MB-231 cells
Procedure: (§3) Biological activity of the peptides was first assessed using MCF-7 breast cancer cells that express AdipoR1. Arditi J D, Venihaki M, Karalis K P, Chrousos G P Horm Metab Res 2007, 39(1):9-13. The MCF-7 breast cancer cell line was obtained from ATCC (Manassas, Va.) and routinely grown in DMEM:F12 plus 5% calf serum (Cellgro Mediatech, Manassas, Va.) at 37° C., 5% CO2. For screening experiments, MCF-7 cells were plated in 24-well plates at the concentration of 30,000 cells/well. After 12 h of culture in the growth medium, the cells were synchronized in serum-free medium (SFM) (DMEM:F12 supplemented with […] bovine serum albumin, 1 mM FeSO4 and 2 mM L-glutamine) for 24 h and then shifted back to the full growth medium containing either gAd (Phoenix Secretomics, Burlingame, Calif.) at 50 ng/mL, individual peptides, or no test compounds for 24 h. At conclusion of proliferation assays, the cells were counted under the microscope with trypan-blue exclusion. Each experiment was performed in triplicate and repeated at least three times. ADP 25-β-AlaNH2, ADP 91-β-AlaNH2, ADP 157-β-AlaNH2, ADP 223-β-AlaNH2, ADP 289-β-AlaNH2 and ADP 355-β-AlaNH2 were solubilized at 65° C. for 30 min and were further purified by RP-HPLC and screened together with the individually synthesized adiponectin peptides at the exact concentration of 50 ng/mL.
(§4) The effects of the selected peptide ADP 355-NH2 on cell proliferation were tested in breast cancer cell lines (MCF-7, MDA-MB-231) and in glioblastoma cells (LN18), all obtained from ATCC and routinely cultured as described previously. Otvos L, Jr., et al. European J Cancer 2011, 47(10):1578-1584. Riolfi M, et al. Brain Pathol 2010, 20(2):481-489. Bartucci M, et al. Cancer Res 2001, 61(18):6747-6754. The peptide was tested at 10 pM-100 μM concentrations under conditions described above under peptide screening.

LN18 glioblastoma cells = assay: Cell growth experiments, cell counting; assay type: cell-based
Procedure: as §3, §4

AMPK = assay: Signaling analysis by Western blot: AMPK phosphorylation; assay type: cell-based
Procedure: as §2

[4] = Peptide stability in mouse serum; assay type: in vitro ADME; conditions: 25% aqueous mouse serum, calculated from degradation rate in 25% aqueous serum, 37° C., data not shown
Procedure: as §1

STAT3 = assay: Signaling analysis by Western blot: STAT3 phosphorylation; assay type: cell-based; conditions: for STAT3 phosphorylation: 10 μM
Procedure: as §2

female CBA/J mice = assay: In vivo toxicity, bolus ip; conditions: for Kidney weight / Kidney weight relative to total weight (%) / Liver weight / Liver weight relative to total weight (%) / Spleen weight: day 5
Description: On day 5 the mice were killed by CO2 inhalation and the potential peptide elimination organs, the livers, spleens and kidneys were removed and weighed.

[5] = MDA-MB-231 cells, 10 μM, 0-60 min
[6] = LN 18 cells, compared with 1 μM
[7] = four days after ip administration, vs untreated

## CC[C@H](C)[C@H](NC(=O)[C@@H](N)CC(N)=O)C(=O)N1CCC[C@H]1C(=O)NCC(=O)N[C@@H](CC(C)C)C(=O)N[C@@H](Cc1ccc(O)cc1)C(=O)N[C@@H](Cc1ccc(O)cc1)C(=O)N[C@@H](Cc1ccccc1)C(=O)N[C@@H](C)C(=O)N[C@@H](Cc1ccc(O)cc1)C(=O)NCCC(N)=O [ADP 25-β-AlaNH2, Asn-Ile-Pro-Gly-Leu-Tyr-Tyr-Phe-Ala-Tyr-β-AlaNH2] (H-NIPGLYYFAY[βAla]-NH2; N-terminus assumed)
[1]; 50 ng/mL
  biological activity in cancer cell growth inhibition assays: fully active
[1]; MCF-7 cells, 50 ng/mL, relative to 50 ng/mL gAd (baseline)
  Cytostatic Activity of Original Peptide vs. gAd (% Increase): 11%

## CCC[C@H](NC(=O)[C@@H]1CCCN1C(=O)[C@@H](NC(=O)[C@H](N)CC(N)=O)[C@@H](C)CC)C(=O)N[C@@H](CC(C)C)C(=O)N[C@@H](Cc1ccc(O)cc1)C(=O)N[C@H](CO)C(=O)N[C@@H](Cc1ccccc1)C(=O)N[C@@H](C)C(=O)N[C@H](CO)C(N)=O [ADP 355-NH2, D-Asn-Ile-Pro-Nva-Leu-Tyr-D-Ser-Phe-Ala-D-Ser-NH2] (H-[dN]IP[Nva]LY[dS]FA[dS]-NH2)
[2]
  stability in whole mouse blood: without noticeable degradation
ERK1/2; MCF-7 cells, 100 nM, at 60 min
  ERK1/2 phosphorylation: decreased
ERK1/2; MDA-MB-231 cells, 10 μM, at 30 and 60 min
  ERK1/2 pathway: significantly inhibited
Akt; LN18 cells, 10 μM, at 15-60 min
  total and phosphorylated levels of Akt: down-regulated
Akt; MCF-7 cells, 100 nM, 0-60 min
  activation of Akt: did not affect
Akt; [5]
  Akt activation: did not affect
[1]; MCF-7 cells
  concentration up to which the growth inhibitory activity was maintained: up to 10 μM
  cytostatic effect at maximal effective doses compared with gAd at 50 ng/mL: greater cytostatic effects
  peptide concentration at which the best growth inhibition was achieved: 100 nM
[1]; MCF-7 cells, 10 pM-100 μM
  effect on normal cell growth: restricted normal cell growth in a dose-dependent manner
[1]; MCF-7 cells, compared with 100 nM
  growth inhibition at 10 pM-10 nM: less effective
[3]
  cytostatic effect at maximal effective doses compared with gAd at 50 ng/mL: greater cytostatic effects
[3]; 10 pM-100 μM
  effect on normal cell growth: restricted normal cell growth in a dose-dependent manner
[3]; compared with 1 μM
  growth inhibition at 10 μM: further activity increase
  growth inhibition at 100 μM: less inhibitory
LN18 glioblastoma cells; LN18 cells
  cytostatic effect at maximal effective doses compared with gAd at 50 ng/mL: greater cytostatic effects
LN18 glioblastoma cells; LN18 cells, 10 pM-100 μM
  effect on normal cell growth: restricted normal cell growth in a dose-dependent manner
LN18 glioblastoma cells; [6]
  growth inhibition at 10 μM: further activity increase
  growth inhibition at 100 μM: less inhibitory
AMPK; LN18 cells, 10 μM, 0-60 min
  AMPK modulation: did not modulate
AMPK; MCF-7 cells, 100 nM, at 15 and 30 min
  phosphorylation of AMPK: increased
AMPK; [5]
  AMPK activation: did not affect
[4]
  half-life at 150 μg/mL: 1.25 h
STAT3; LN18 cells, at 15-60 min
  STAT3 phosphorylation: decreased
STAT3; MCF-7 cells, 100 nM, at 15-60 min
  phosphorylation of STAT3: increased
STAT3; MDA-MB-231 cells, at 15 and 30 min
  STAT3 phosphorylation: transiently increased
Female CBA/J mice; 5 mg/kg bolus ip
  Kidney weight: 0.30 g
  Kidney weight relative to total weight (%): 1.6%
  Liver weight: 1.02 g
  Liver weight relative to total weight (%): 5.4%
  Spleen weight: 0.07 g
Female CBA/J mice; 10 mg/kg bolus ip
  Kidney weight: 0.29 g
  Kidney weight relative to total weight (%): 1.6%
  Liver weight: 1.09 g
  Liver weight relative to total weight (%): 5.9%
  Spleen weight: 0.06 g
Female CBA/J mice; 25 mg/kg bolus ip
  Kidney weight: 0.35 g
  Kidney weight relative to total weight (%): 1.7%
  Liver weight: 1.24 g
  Liver weight relative to total weight (%): 5.9%
  Spleen weight: 0.07 g
Female CBA/J mice; 50 mg/kg bolus ip
  Kidney weight: 0.31 g
  Kidney weight relative to total weight (%): 1.7%
  Liver weight: 1.07 g
  Liver weight relative to total weight (%): 6.2%
  Spleen weight: 0.07 g
Female CBA/J mice; four days after ip administration
  spleen size compared with untreated control mice: identical in size
Female CBA/J mice; [7]
  increase of kidney size relative to total body weight: 2%
  increase of liver size relative to total body weight: 8%
Female CBA/J mice; up to 50 mg/kg ip bolus, observed for 4 days
  signs of systemic toxicity (tremor, head tilt, reduced activity, squinting): no signs of systemic toxicity
